From patent US11261152B2, “Inhibitors of the N-terminal domain of the androgen receptor” (The Regents of the University of California, priority 2017, dated 2022)
“Also recorded” adds a separate entry of the source.

How the values were obtained:
[1] = test system: AR transcriptional activity (MMTV reporter); experiment: MMTV reporter assay; format: cell-based; details: result in words
[2] = test system: androgen response element (ARE); experiment: ARE reporter assay (tandem copies of the androgen response element); format: cell-based; details: result in words
Experimental: FIG. 11A. Effects of JN series compounds in reporter assays for androgen response element. Experiments were performed in triplicate and results are means+/−s.d.

[3] = test system: AR-null PCa cells (DU145, PC3); experiment: MTT / CellTiter GLO cell viability, AR-null prostate cancer cells; details: result in words
Experimental: The results are means of quadruplicate expts±s.d. Top panel: CellTiter GLO luminescent bioassay (arbitrary units on vertical axis). Bottom panel: classical MTT assay ([blue/yellow]=[viable/non-viable]).
Experiments were performed in quadruplicate; results are means+/−s.d.
AR null PC3 cells were exposed to the indicated compounds for 6 days; cell viability was measured by MTT assay. Results were normalized to that of vehicle control. Experiments were performed in quadruplicate; results are means+/−s.d.
For each compound and concentration in the figure, the bars represent relative cell viability of 22Rv1, LAPC4, and DU145, from left to right.
For each compound and concentration in the figure, the bars represent relative cell viability of CWR22 and PC3, from left to right.

[4] = test system: AR positive PCa cells (LNCaP, LNCaP-AR, CWR22, 22Rv1, LAPC4); experiment: MTT / CellTiter GLO cell viability, AR positive prostate cancer cells; details: result in words
[5] = test system: AR transcriptional activity (PSA promoter/enhancer reporter); experiment: PSA promoter/enhancer reporter assay; format: cell-based; details: result in words
Excerpt: (§1) Additional compounds have been generated with sequential numbering through JN136. In vitro biologic activity and biochemical activity/selectivity for AR inhibition have been tested for JN104-133.

[6] = test system: LNCaP-AR castration resistant cell line; experiment: LNCaP-AR castration resistant xenograft in castrated nude mice; format: in vivo
Experimental: FIG. 12A. In vivo effects of JN series compounds.
FIG. 12B. In vivo effects of JN series compounds.
Selected compounds were tested in a mouse xenograft model. In this model, the LNCaP-AR castration resistant cell line was grown subcutaneously in the flanks of castrated nude mice. When tumors reached 150-200 mm^3, mice were administered selected JN series compounds, vehicle or positive control by oral gavage once per day for five days per week (Mon-Fri). […].

[7] = test system: non-AR-dependent reporter systems; experiment: Non-AR-dependent reporter systems; format: cell-based; details: result in words
Excerpt: as §1

C=C(C)C(=O)NC(=O)/C(=C/c1ccc(C(F)(F)F)cc1)c1ccccc1 [JN121]
reporter activity driven by the MMTV promoter [1]: excellent inhibitory effects
reporter activity driven by the ARE [2]: excellent inhibitory effects
off target effects on AR-null prostate cancer cell lines compared to JN018 [3]: reduced off target effects
growth inhibitory / suppressive effects as compared to JN018 [4]: improved in vitro growth inhibitory effects
AR transcriptional activity in PSA promoter/enhancer reporter [5]: excellent inhibitory effects
tumor growth of LNCaP-AR model in castrated nude mice ([6]; oral gavage once per day, five days per week (Mon-Fri)): inhibit the growth; also recorded: demonstrated anti-tumor effects
signs of toxicity in mice ([6]; xenograft study, oral gavage Mon-Fri): limited or no outward signs of toxicity
effects on non-AR-dependent reporter systems [7]: minimal effects
